# Data: paper PMC7180767, “Influence of Selected Antidepressants on the Ciliated Protozoan Spirostomum ambiguum: Toxicity, Bioaccumulation, and Biotransformation Products” (Molecules, 2020)
# Read-outs that look alike come from different tables or passages of the source.
# What was measured:
# Spirostomum ambiguum [1] = assay: microbe, parasite or virus in culture
# in vitro = conditions: for LC50 at 1 d / LC50 at 2 d / LC50 at 7 d: Spirostomum ambiguum
# Spirostomum ambiguum [2] = tested on: Spirostomum ambiguum
# Ceriodaphnia dubia = conditions: cited from earlier work; for toxicity: endpoint not stated
# Daphnia magna = conditions: endpoint not stated; cited from earlier work
# Spirostomum ambiguum [3] = tested on: Spirostomum ambiguum; remark: listed apart in the source
# [4] = ref www.drugbank.ca, cited from earlier work; for Log P: octanol-water partition coefficient
# Oncorhynchus mykiss = conditions: cited from earlier work
# Thamnocephalus platyurus = conditions: cited from earlier work
# [5] = tested on: Hydropsyche sp. and Erpobdella octoculata; conditions: effluent reach stream; cited from earlier work
# Leishmania donovani = conditions: cited from earlier work
# Planorbid sp. = conditions: in vivo; cited from earlier work
# Spirostomum ambiguum [6] = tested on: Spirostomum ambiguum; remark: listed apart in the source
# Notonecta glauca = conditions: cited from earlier work
# Gammarus pulex = conditions: cited from earlier work
# M. galloprovincialis = conditions: fluoxetine 75 ng/L nominal, cited from earlier work
# [7] = Spirostomum ambiguum, 7 d, 10 µg/L, pH 7.4
# [8] = Spirostomum ambiguum, 7 d, 25 µg/L, pH 7.4
# [9] = Spirostomum ambiguum, 8 d, 10 µg/L, pH 7.4
# [10] = Spirostomum ambiguum, 8 d, 25 µg/L, pH 7.4
# [11] = Spirostomum ambiguum, 12 d, 10 µg/L, pH 7.4
# [12] = Spirostomum ambiguum, 12 d, 25 µg/L, pH 7.4
compound,measurement,setting,value
"Fc1ccc([C@@H]2CCNC[C@H]2COc2ccc3c(c2)OCO3)cc1 [Paroxetine, paroxetine]",EC50,"Spirostomum ambiguum [1]; 24 h, 1 d, pH = 6.0",3.15 ± 1.68 µg/mL
same,EC50,"Spirostomum ambiguum [1]; 24 h, 1 d, pH = 6.5",1.37 ± 0.03 µg/mL
same,EC50,"Spirostomum ambiguum [1]; 24 h, 1 d, pH = 7.4",1.15 ± 0.29 µg/mL
same,EC50,"Spirostomum ambiguum [1]; 48 h, 2 d, pH = 6.0",2.07 ± 0.73 µg/mL
same,EC50,"Spirostomum ambiguum [1]; 48 h, 2 d, pH = 6.5",1.24 ± 0.17 µg/mL
same,EC50,"Spirostomum ambiguum [1]; 48 h, 2 d, pH = 7.4",1.1 ± 0.29 µg/mL
same,EC50,"Spirostomum ambiguum [1]; […], 7 d, pH = 6.0",1.32 ± 0.13 µg/mL
same,EC50,"Spirostomum ambiguum [1]; […], 7 d, pH = 6.5",0.76 ± 0.26 µg/mL
same,EC50,"Spirostomum ambiguum [1]; […], 7 d, pH = 7.4",0.74 ± 0.06 µg/mL
same,LC50 at 1 d,in vitro; pH 6,4.53 ± 0.55 µg/mL
same,LC50 at 2 d,in vitro; pH 6,2.55 ± 0.75 µg/mL
same,LC50 at 7 d,in vitro; pH 6,1.44 ± 0.21 µg/mL
same,LC50 at 1 d,in vitro; pH 6.5,1.4 ± 0.06 µg/mL
same,LC50 at 7 d,in vitro; pH 6.5,0.81 ± 0.31 µg/mL
same,LC50 at 1 d,in vitro; pH 7.4,1.17 ± 0.29 µg/mL
same,LC50 at 2 d,in vitro; pH 7.4,1.15 ± 0.3 µg/mL
same,LC50 at 7 d,in vitro; pH 7.4,0.77 ± 0.1 µg/mL
same,LC50,in vitro; pH 6.5,1.27 ± 0.16 µg/mL
same,Bioconcentration factor in S. ambiguum,Spirostomum ambiguum [2]; [7],905 L/kg
same,Concentration in S. ambiguum,Spirostomum ambiguum [2]; [7],0.45 µg/g
same,Bioconcentration factor in S. ambiguum,Spirostomum ambiguum [2]; [8],794 L/kg
same,Concentration in S. ambiguum,Spirostomum ambiguum [2]; [8],1.19 µg/g
same,Bioconcentration factor in S. ambiguum,Spirostomum ambiguum [2]; [9],806 L/kg
same,Concentration in S. ambiguum,Spirostomum ambiguum [2]; [9],0.40 µg/g
same,Bioconcentration factor in S. ambiguum,Spirostomum ambiguum [2]; [10],934 L/kg
same,Concentration in S. ambiguum,Spirostomum ambiguum [2]; [10],1.40 µg/g
same,Bioconcentration factor in S. ambiguum,Spirostomum ambiguum [2]; [11],3649 L/kg
same,Concentration in S. ambiguum,Spirostomum ambiguum [2]; [11],1.82 µg/g
same,Bioconcentration factor in S. ambiguum,Spirostomum ambiguum [2]; [12],1234 L/kg
same,Concentration in S. ambiguum,Spirostomum ambiguum [2]; [12],1.85 µg/g
same,BCF values reached during the uptake phase,"Spirostomum ambiguum [2]; Spirostomum ambiguum, pH 7.4",≤ 1000 L/kg
same,toxicity,Ceriodaphnia dubia,0.58 mg/L
same,toxicity,Daphnia magna,6.3 mg/L
"CN1CCN2c3ccccc3Cc3ccccc3C2C1 (stereo not shown) [Mianserin, mianserin]",time of highest concentration in S. ambiguum cells,Spirostomum ambiguum [2],two days
same,Concentration in S. ambiguum,"Spirostomum ambiguum [2]; Spirostomum ambiguum, 1 d, 100 µg/L, pH 7.4",229.05 µg/g
same,BCF values reached during the uptake phase,"Spirostomum ambiguum [2]; Spirostomum ambiguum, pH 7.4",4939 L/kg
same,number of transformation products observed,Spirostomum ambiguum [3],Five
same,pKa,[4]; acid dissociation constant,6.92
same,Log P,[4],3.83
"CN[C@H]1CC[C@@H](c2ccc(Cl)c(Cl)c2)c2ccccc21 [Sertraline, sertraline]",96-h LC50,Oncorhynchus mykiss,0.38 µg/mL
same,24-h LC50,Thamnocephalus platyurus,0.6 µg/mL
same,LC50 at 1 d,in vitro; pH 6,0.85 ± 0.09 µg/mL
same,LC50 at 2 d,in vitro; pH 6,0.49 ± 0.1 µg/mL
same,LC50 at 7 d,in vitro; pH 6,0.33 ± 0.08 µg/mL
same,LC50 at 1 d,in vitro; pH 6.5,0.47 ± 0.11 µg/mL
same,LC50 at 2 d,in vitro; pH 6.5,0.33 ± 0.06 µg/mL
same,LC50 at 7 d,in vitro; pH 6.5,0.18 ± 0.04 µg/mL
same,LC50 at 1 d,in vitro; pH 7.4,0.41 ± 0.05 µg/mL
same,LC50 at 2 d,in vitro; pH 7.4,0.35 ± 0.01 µg/mL
same,LC50 at 7 d,in vitro; pH 7.4,0.27 ± 0.03 µg/mL
same,time of highest concentration in cells,"Spirostomum ambiguum [2]; Spirostomum ambiguum, 100 µg/L, pH 7.4",24 h
same,BCF values reached during the uptake phase,"Spirostomum ambiguum [2]; Spirostomum ambiguum, pH 7.4","34,092 L/kg"
same,"fall of intracellular concentration in the depuration phase, of the highest concentration","Spirostomum ambiguum [2]; Spirostomum ambiguum, pH 7.4",40%
same,48-h LC50,Ceriodaphnia dubia,0.12 µg/mL
same,bioaccumulation factor (BCF),[5],higher than 2000 L/kg
same,Log P,[4],5.06
same,activity against Leishmania donovani,Leishmania donovani,high activity
same,BCF,Planorbid sp.,990 L/kg
same,EC20,"Spirostomum ambiguum [6]; Spirostomum ambiguum, 1 d, pH 6",0.46 ± 0.18 µg/mL
same,EC20,"Spirostomum ambiguum [6]; Spirostomum ambiguum, 1 d, pH 6.5",0.28 ± 0.04 µg/mL
same,EC20,"Spirostomum ambiguum [6]; Spirostomum ambiguum, 1 d, pH 7.4",0.29 ± 0.01 µg/mL
same,EC20,"Spirostomum ambiguum [6]; Spirostomum ambiguum, 2 d, pH 6",0.19 ± 0.03 µg/mL
same,EC20,"Spirostomum ambiguum [6]; Spirostomum ambiguum, 2 d, pH 6.5",0.22 ± 0.08 µg/mL
same,EC20,"Spirostomum ambiguum [6]; Spirostomum ambiguum, 2 d, pH 7.4",0.29 ± 0.01 µg/mL
same,EC20,"Spirostomum ambiguum [6]; Spirostomum ambiguum, 7 d, pH 6",0.20 ± 0.05 µg/mL
same,EC20,"Spirostomum ambiguum [6]; Spirostomum ambiguum, 7 d, pH 6.5",0.13 ± 0.03 µg/mL
same,EC20,"Spirostomum ambiguum [6]; Spirostomum ambiguum, 7 d, pH 7.4",0.15 ± 0.01 µg/mL
"CNCCC(Oc1ccc(C(F)(F)F)cc1)c1ccccc1 (stereo not shown) [Fluoxetine, fluoxetine]",BCF,Notonecta glauca,1387 L/kg
same,toxicity,Thamnocephalus platyurus; endpoint not stated,0.85 mg/L
same,BCF values reached during the uptake phase,"Spirostomum ambiguum [2]; S. ambiguum, uptake phase",≤ 1000 L/kg
same,toxicity,Ceriodaphnia dubia,0.23 mg/L
same,toxicity,Daphnia magna,0.82 mg/L
same,Log P,[4],4.09
same,BCF,Planorbid sp.,3000 L/kg
same,BCF,Gammarus pulex,"185,900 L/kg"
same,EC20,"Spirostomum ambiguum [6]; 1 d, pH = 6.0",2.03 ± 0.82 µg/mL
same,EC20,"Spirostomum ambiguum [6]; 1 d, pH = 6.5",1.16 ± 0.14 µg/mL
same,EC20,"Spirostomum ambiguum [6]; 1 d, pH = 7.4",1.21 ± 0.04 µg/mL
same,EC20,"Spirostomum ambiguum [6]; 2 d, pH = 6.0",1.72 ± 0.51 µg/mL
same,EC20,"Spirostomum ambiguum [6]; 2 d, pH = 6.5",0.98 ± 0.16 µg/mL
same,EC20,"Spirostomum ambiguum [6]; 2 d, pH = 7.4",1.06 ± 0.11 µg/mL
same,EC20,"Spirostomum ambiguum [6]; 7 d, pH = 6.0",0.86 ± 0.15 µg/mL
same,EC20,"Spirostomum ambiguum [6]; 7 d, pH = 6.5",0.58 ± 0.07 µg/mL
same,EC20,"Spirostomum ambiguum [6]; 7 d, pH = 7.4",0.70 ± 0.13 µg/mL
same,concentration in mussel,M. galloprovincialis; after 3 days,2.53 ng/g dry weight
same,concentration in mussel,M. galloprovincialis; after 15 days,9.31 ng/g
NCCC(Oc1ccc(C(F)(F)F)cc1)c1ccccc1 (stereo not shown) [norfluoxetine],concentration in mussel,M. galloprovincialis; after 3 days,3.06 ng/g dry weight
same,concentration in mussel,M. galloprovincialis; after 15 days,11.65 ng/g
